In patent US8785147B2, “L-threonine analysis method and L-threonine dehydrogenase” (Toyama Prefecture, priority 2010, dated 2014):
Where two headings read alike, the source gives them in different places.

Experiments:
[1] = test system: GdTDH: TDH from chicken liver (Gallus domesticus); details: substrate specificity; L-threonine = 100; cited from earlier work
[2] = test system: CyTDH: TDH from Cytophaga sp. KUC-1; details: substrate specificity; L-threonine = 100; cited from earlier work
[3] = test system: CsTDH: TDH from Clostridium sticklandii; details: substrate specificity; L-threonine = 100; cited from earlier work
[4] = target: EcTDH: TDH from Escherichia coli K-12 (Escherichia coli, UniProt P07913); details: cited from earlier work
EcTDH: TDH from Escherichia coli K-12, sequence (P07913 whole entry): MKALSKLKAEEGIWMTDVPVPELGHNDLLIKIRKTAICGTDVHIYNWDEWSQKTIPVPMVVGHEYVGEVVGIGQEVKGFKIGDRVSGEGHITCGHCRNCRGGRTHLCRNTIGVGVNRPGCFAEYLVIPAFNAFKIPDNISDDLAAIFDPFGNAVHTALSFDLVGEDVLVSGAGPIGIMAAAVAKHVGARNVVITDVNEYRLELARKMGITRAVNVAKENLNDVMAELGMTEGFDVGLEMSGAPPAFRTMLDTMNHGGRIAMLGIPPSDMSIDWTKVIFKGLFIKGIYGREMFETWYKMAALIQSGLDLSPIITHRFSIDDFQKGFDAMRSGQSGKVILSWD

[5] = test system: TDH derived from Cupriavidus necator NBRC 102504 (SEQ ID NO: 1) (CnTDH); assay: Substrate specificity of TDH, standard assay; format: biochemical; details: for Activity of the present enzyme on the substrate (in words): substrate 10 mM
Method: L-threonine oxidation activity was determined by measuring coenzyme NAD^+ reduction at 30° C. and 340 nm. The reaction composition consisted of a total volume of 1 mL and contained L-threonine (final concentration 10 mM), NAD^+ (final concentration 2.5 mM), and glycine-KCl—KOH buffer (100 mM, pH 10.0). The measurement of activity began with the addition of the enzyme. One unit (U) of enzymatic activity was defined as the amount of enzyme producing 1 μmol of NADH per minute under standard conditions.
TDH was examined using substrates in the form of various L-amino acids, amino alcohols, and alcohols. […]

TkTDH = TkTDH (Thermococcus kodakarensis, UniProt Q5JI69); details: substrate specificity; L-threonine = 100; cited from earlier work
TkTDH, sequence (Q5JI69 whole entry): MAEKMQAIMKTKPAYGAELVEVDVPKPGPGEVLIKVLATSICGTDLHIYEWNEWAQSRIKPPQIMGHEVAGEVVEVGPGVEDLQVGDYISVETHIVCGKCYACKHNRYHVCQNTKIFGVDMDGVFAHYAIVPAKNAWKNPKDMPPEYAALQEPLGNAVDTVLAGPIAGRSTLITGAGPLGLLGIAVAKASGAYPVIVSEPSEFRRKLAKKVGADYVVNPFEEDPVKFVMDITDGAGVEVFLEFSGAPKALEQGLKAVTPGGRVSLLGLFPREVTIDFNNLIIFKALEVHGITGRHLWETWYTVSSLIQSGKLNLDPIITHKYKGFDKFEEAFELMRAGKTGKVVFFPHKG

[6] = target: PfTDH: TDH from Pyrococcus furiosus (Pyrococcus furiosus, UniProt Q8U259); details: substrate specificity; L-threonine = 100; cited from earlier work
PfTDH: TDH from Pyrococcus furiosus, sequence (Q8U259 whole entry): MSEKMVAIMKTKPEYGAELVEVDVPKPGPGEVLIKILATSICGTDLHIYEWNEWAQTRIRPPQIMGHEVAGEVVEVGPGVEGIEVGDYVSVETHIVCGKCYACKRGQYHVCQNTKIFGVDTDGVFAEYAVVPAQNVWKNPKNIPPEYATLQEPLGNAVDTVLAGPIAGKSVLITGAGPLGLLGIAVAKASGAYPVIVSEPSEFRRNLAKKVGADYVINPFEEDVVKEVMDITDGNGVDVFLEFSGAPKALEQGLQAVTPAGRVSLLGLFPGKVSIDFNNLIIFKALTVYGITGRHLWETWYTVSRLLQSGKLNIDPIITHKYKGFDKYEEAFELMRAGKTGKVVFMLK

[7] = test system: StTDH: TDH from Streptomyces sp. 139; details: substrate specificity; L-threonine = 100; cited from earlier work
[8] = test system: AgTDH: TDH from Arthrobacter globiformis; details: substrate specificity; L-threonine = 100; cited from earlier work
[9] = substrate specificity, L-threonine = 100
[10] = substrate concentration 10 mM, standard assay conditions, L-threonine = 100

Row | Compound | Relative activity (%) GdTDH [1] [%] | Relative activity (%) CyTDH [2] [%] | Relative activity (%) CsTDH [3] [%] | Relative activity (%) EcTDH [4, 9] [%] | Relative activity (%) CnTDH [5, 10] [%] | Relative activity (%) TkTDH (TkTDH) [%] | Relative activity (%) PfTDH [6] [%] | Relative activity (%) CnTDH ([5]; substrate 100 mM) [%] | Relative activity (%) StTDH [7] [%] | Relative activity (%) AgTDH [8] [%] | Activity of the present enzyme on the substrate (in words) ([5]; standard assay conditions) | Relative activity (%) EcTDH [4] [%]
1 | CCC(O)C(N)C(=O)O (racemic) [DL-α-amino-β-hydroxyvaleric acid] | 0 | 31 | 20 | 71 |  |  |  |  |  |  |  | 
2 | C[C@H](O)[C@H](N)C(=O)O (racemic) [DL-allothreonine] | 0 |  | 0 | 95.0 | 0 |  |  |  |  |  |  | 
3 | NC(C(=O)O)C(O)c1ccccc1 (racemic) [DL-threo-3-phenylserine] |  | 0 | 0 | 3 | 0 |  |  |  |  |  |  | 
4 | N[C@@H](CO)C(=O)O [L-serine] | 0 | 0 | 0 | 4.0 | 0 | 13 | 15 | 0 |  |  |  | 
5 | C[C@@H](O)[C@H](N)C(=O)O [L-threonine] | 100 | 100 | 100 | 100.0 | 100 | 100 | 100 |  | 100 | 100 | exhibited the activity for only L-threonine | 
6 | C[C@@H](O)[C@H](N)C(N)=O [L-threonine amide] |  |  | 0 |  | 0 |  |  |  |  |  |  | 98
7 | C[C@H](O)[C@@H](N)C(=O)O [D-threonine] | 0 | 0 | 0 | 63.7 | 0 |  | 5 |  |  |  | no activity was observed | 
